In brackets after ≈: the same amount, converted by molar mass.
What was measured:
[1] = tested on: Enterobacter cloacae; assay: Antibacterial activity against human isolate of Enterobacter cloacae assessed as growth inhibition after 24 hrs at 37 degC by iodonitrotetrazolium chloride staining based microdilution broth assay; format: functional
[2] = tested on: Aspergillus ochraceus; assay: Antifungal activity against Aspergillus ochraceus ATCC 12066 assessed as growth inhibition after 72 hrs at 28 degC by serial dilution method; format: functional; settings: for MIC: Aspergillus ochraceus, ATCC 12066, 72 h
[3] = molecular target: Human immunodeficiency virus type 1 reverse transcriptase (Human immunodeficiency virus 1) (UniProt Q72547); assay: Inhibition of HIV1 reverse transcriptase assessed as residual enzyme activity by measuring reduction in [3H]dTTP incorporation into poly(rA)-oligo(dT) at 4 uM incubated for 15 mins by scintillation counting method relative to control
[4] = tested on: Staphylococcus aureus; assay: Antibacterial activity against Staphylococcus aureus ATCC 6538 assessed as growth inhibition after 24 hrs at 37 degC by iodonitrotetrazolium chloride staining based microdilution broth assay; format: functional; settings: ATCC 6538, 24 h
[5] = tested on: Escherichia coli; assay: Antibacterial activity against Escherichia coli ATCC 35210 assessed as growth inhibition after 24 hrs at 37 degC by iodonitrotetrazolium chloride staining based microdilution broth assay; format: functional; settings: ATCC 35210, 24 h
[6] = tested on: Talaromyces funiculosus; assay: Antifungal activity against Penicillium funiculosum ATCC 36839 assessed as growth inhibition after 72 hrs at 28 degC by serial dilution method; format: functional; settings: for MIC: Talaromyces funiculosus, ATCC 36839, 72 h
[7] = tested on: Aspergillus fumigatus; assay: Antifungal activity against Aspergillus fumigatus ATCC 1022 assessed as growth inhibition after 72 hrs at 28 degC by serial dilution method; format: functional; settings: for MIC: Aspergillus fumigatus, ATCC 1022, 72 h
[8] = tested on: Pseudomonas aeruginosa; assay: Antibacterial activity against Pseudomonas aeruginosa ATCC 27853 assessed as growth inhibition after 24 hrs at 37 degC by iodonitrotetrazolium chloride staining based microdilution broth assay; format: functional; settings: ATCC 27853, 24 h
[9] = tested on: Aspergillus versicolor; assay: Antifungal activity against Aspergillus versicolor ATCC 11730 assessed as growth inhibition after 72 hrs at 28 degC by serial dilution method; format: functional; settings: for MIC: Aspergillus versicolor, ATCC 11730, 72 h
[10] = tested on: Trichoderma viride; assay: Antifungal activity against Trichoderma viride IAM 5061 assessed as growth inhibition after 72 hrs at 28 degC by serial dilution method; format: functional; settings: for MIC: Trichoderma viride, IAM 5061, 72 h
[11] = tested on: Bacillus cereus; assay: Antibacterial activity against clinical isolates of Bacillus cereus assessed as growth inhibition after 24 hrs at 37 degC by iodonitrotetrazolium chloride staining based microdilution broth assay; format: functional
[12] = tested on: Candida albicans; assay: Antifungal activity against Candida albicans ATCC 10231 assessed as growth inhibition after 72 hrs at 28 degC by serial dilution method; format: functional; settings: for MIC: Candida albicans, ATCC 10231, 72 h
[13] = tested on: Listeria monocytogenes; assay: Antibacterial activity against Listeria monocytogenes NCTC 7973 assessed as growth inhibition after 24 hrs at 37 degC by iodonitrotetrazolium chloride staining based microdilution broth assay; format: functional; settings: NCTC 7973, 24 h
[14] = tested on: Salmonella typhimurium; assay: Antibacterial activity against Salmonella typhimurium ATCC 13311 assessed as growth inhibition after 24 hrs at 37 degC by iodonitrotetrazolium chloride staining based microdilution broth assay; format: functional, Salmonella enterica subsp. enterica serovar Typhimurium; settings: Salmonella enterica, ATCC 13311, 24 h
[15] = tested on: Penicillium ochrochloron; assay: Antifungal activity against Penicillium ochrochloron ATCC 9112 assessed as growth inhibition after 72 hrs at 28 degC by serial dilution method; format: functional; settings: for MIC: Penicillium ochrochloron, ATCC 9112, 72 h
[16] = tested on: Aspergillus niger; assay: Antifungal activity against Aspergillus niger ATCC 6275 assessed as growth inhibition after 72 hrs at 28 degC by serial dilution method; format: functional; settings: for MIC: Aspergillus niger, ATCC 6275, 72 h
[17] = tested on: Micrococcus flavus; assay: Antibacterial activity against Micrococcus flavus ATCC 10240 assessed as growth inhibition after 24 hrs at 37 degC by iodonitrotetrazolium chloride staining based microdilution broth assay; format: functional; settings: ATCC 10240, 24 h

MIC [1] [µM] | MIC [2] [µM] | Activity [3] [%] | MIC [4] [µM] | MIC [5] [µM] | MIC [6] [µM] | MIC [7] [µM] | MIC [8] [µM] | MIC [9] [µM] | MIC [10] [µM] | SMILES | MBC [1] [µM] | MFC99.5 [2] [×10⁻² umol/ml] | MBC [4] [µM] | MBC [5] [µM] | MFC99.5 [6] [×10⁻² umol/ml] | MFC99.5 [7] [×10⁻² umol/ml] | MBC [8] [µM] | MFC99.5 [9] [×10⁻² umol/ml] | MFC99.5 [10] [×10⁻² umol/ml] | MBC [11] [µM] | also measured
30.6 (≈ 14.2 µg/mL) | 0.42 (≈ 0.195 µg/mL) | 100 | 9 (≈ 4.19 µg/mL) | 62.5 (≈ 29.1 µg/mL) | 0.42 (≈ 0.195 µg/mL) | 0.42 (≈ 0.195 µg/mL) | 15.3 (≈ 7.12 µg/mL) | 0.21 (≈ 0.0977 µg/mL) | 0.21 (≈ 0.0977 µg/mL) | O=C1CSC(c2cccc(Cl)c2Cl)N1c1nc(C23CC4CC(CC(C4)C2)C3)cs1 (centres undefined) | 62.5 (≈ 29.1 µg/mL) | 0.06 | 15.3 (≈ 7.12 µg/mL) | 125 (≈ 58.2 µg/mL) | 0.06 | 0.06 | 62.5 (≈ 29.1 µg/mL) | 0.06 | 0.06 | 62.5 (≈ 29.1 µg/mL) | MIC [11]: 30.6 µM (≈ 14.2 µg/mL); MFC99.5 [12]: 1.075 ×10⁻² umol/ml; MIC [12]: 5.3 µM (≈ 2.47 µg/mL); MBC [13]: 125 µM (≈ 58.2 µg/mL); MIC [13]: 62.5 µM (≈ 29.1 µg/mL); MBC [14]: 62.5 µM (≈ 29.1 µg/mL); MIC [14]: 15.3 µM (≈ 7.12 µg/mL); MFC99.5 [15]: 0.06 ×10⁻² umol/ml; MIC [15]: 0.21 µM (≈ 0.0977 µg/mL); MFC99.5 [16]: 0.06 ×10⁻² umol/ml; MIC [16]: 0.21 µM (≈ 0.0977 µg/mL); MBC [17]: 62.5 µM (≈ 29.1 µg/mL); MIC [17]: 30.6 µM (≈ 14.2 µg/mL)
30.6 (≈ 13.5 µg/mL) | 1.4 (≈ 0.618 µg/mL) | 99.3 | 30.6 (≈ 13.5 µg/mL) | 85 (≈ 37.5 µg/mL) | 0.7 (≈ 0.309 µg/mL) | 11.3 (≈ 4.99 µg/mL) | 30.6 (≈ 13.5 µg/mL) | 5.6 (≈ 2.47 µg/mL) | 1.4 (≈ 0.618 µg/mL) | O=C1CSC(c2ccc([N+](=O)[O-])cc2)N1c1nc(C23CC4CC(CC(C4)C2)C3)cs1 (centres undefined) | 62.5 (≈ 27.6 µg/mL) | 0.28 | 61.2 (≈ 27 µg/mL) | 125 (≈ 55.2 µg/mL) | 0.14 | 4.52 | 125 (≈ 55.2 µg/mL) | 1.13 | 0.28 | 30.6 (≈ 13.5 µg/mL) | MIC [11]: 16.2 µM (≈ 7.18 µg/mL); MFC99.5 [12]: 2.26 ×10⁻² umol/ml; MIC [12]: 11.3 µM (≈ 4.99 µg/mL); MBC [13]: 125 µM (≈ 55.2 µg/mL); MIC [13]: 61.2 µM (≈ 27 µg/mL); MBC [14]: 125 µM (≈ 55.2 µg/mL); MIC [14]: 30.6 µM (≈ 13.5 µg/mL); MFC99.5 [15]: 0.28 ×10⁻² umol/ml; MIC [15]: 1.4 µM (≈ 0.618 µg/mL); MFC99.5 [16]: 0.56 ×10⁻² umol/ml; MIC [16]: 3.5 µM (≈ 1.55 µg/mL); MBC [17]: 125 µM (≈ 55.2 µg/mL); MIC [17]: 61.2 µM (≈ 27 µg/mL)
30.6 (≈ 13.2 µg/mL) | 0.3 (≈ 0.129 µg/mL) | 99.1 | 62.5 (≈ 26.9 µg/mL) | 62.5 (≈ 26.9 µg/mL) | 5.8 (≈ 2.5 µg/mL) | 5.8 (≈ 2.5 µg/mL) | 62.5 (≈ 26.9 µg/mL) | 5.8 (≈ 2.5 µg/mL) | 5.8 (≈ 2.5 µg/mL) | O=C1CSC(c2ccccc2Cl)N1c1nc(C23CC4CC(CC(C4)C2)C3)cs1 (centres undefined) | 125 (≈ 53.9 µg/mL) | 0.07 | 125 (≈ 53.9 µg/mL) | 125 (≈ 53.9 µg/mL) | 1.16 | 1.16 | 125 (≈ 53.9 µg/mL) | 1.16 | 1.16 | 125 (≈ 53.9 µg/mL) | MIC [11]: 30.6 µM (≈ 13.2 µg/mL); MFC99.5 [12]: 2.32 ×10⁻² umol/ml; MIC [12]: 11.6 µM (≈ 5 µg/mL); MBC [13]: 125 µM (≈ 53.9 µg/mL); MIC [13]: 16.2 µM (≈ 7 µg/mL); MBC [14]: 125 µM (≈ 53.9 µg/mL); MIC [14]: 62.5 µM (≈ 26.9 µg/mL); MFC99.5 [15]: 1.16 ×10⁻² umol/ml; MIC [15]: 5.8 µM (≈ 2.5 µg/mL); MFC99.5 [16]: 1.16 ×10⁻² umol/ml; MIC [16]: 9 µM (≈ 3.88 µg/mL); MBC [17]: 125 µM (≈ 53.9 µg/mL); MIC [17]: 45 µM (≈ 19.4 µg/mL)

From ChEMBL document CHEMBL3734713, “4-Thiazolidinone derivatives as potent antimicrobial agents: microwave-assisted synthesis, biological evaluation and docking studies” (2015)
